pEC50, pIC50: −log10 of the molar value. “Also recorded” adds a separate entry of the source.

For data set [1], the target named is T1, Edg-1 (Homo sapiens, UniProt P21453).
T1 construct: expressed in transfected cells; host or cells: HTC rat hepatoma cells (from the earlier reading)
Briefly: Calcium mobilization assay (FLIPR), HTC cells expressing Edg 1. Type of data set: cell-based. To be noted: for pIC50: inhibition; for pEC50: agonist.

Data set [2] addresses T2, Edg-2 (Homo sapiens, UniProt Q92633).
T2 construct: expressed in transfected cells; host or cells: HTC rat hepatoma cells (from the earlier reading)
Description: Calcium mobilization assay (FLIPR), HTC cells expressing Edg 2. Type of data set: cell-based. Particulars: for pIC50: inhibition; for pEC50: agonist. For orientation: Calcium assays in cells follow changes in intracellular calcium, usually with a dye or a luminescent sensor.

Data set [3] deals with T3, Edg-3 (Homo sapiens, UniProt Q99500).
T3 construct: expressed in transfected cells; host or cells: HTC rat hepatoma cells (from the earlier reading)
Briefly: Calcium mobilization assay (FLIPR), HTC cells expressing Edg 3. Type of data set: cell-based. To be noted: for pIC50: inhibition; for pEC50: agonist.

Data set [4] has as its target T4, human Edg-4 receptor (Homo sapiens, UniProt Q9HBW0).
T4 construct: IC50 Edg-4; other: agonist, calcium mobilization; potency relative to compound 101; calcium response (agonist)
Description: Calcium mobilization assay (FLIPR), HTC rat hepatoma cells transfected with human Edg-4. It is filed as cell-based. Particulars: for pIC50: inhibition; for pIC50 / pEC50: calcium mobilization; for potency relative to compound 101: dose response curve, FIG. 2; for inhibition of LPA-induced calcium mobilization, human Edg-4: clonal HTC cell line, FIG. 11; for pEC50: agonist. The source says: (§1) LPA receptors such as Edg-4, couple to calcium effector pathways, and result in increases in intracellular calcium following receptor activation (An et al., Molecular Pharmacology, 54:881-888, 1998, incorporated herein by reference). This biological response lends itself to a very efficient, high-throughput screen using a Fluorescence Imaging Plate Reader (FLIPR; Molecular Devices, Sunnyvale, Calif.). The FLIPR system is a real-time, cell-based assay system with continuous fluorescence detection using a cooled CCD camera. The FLIPR system was used to developing an Edg-4 receptor screen. Rat hepatoma cells stably expressing Edg-4 receptor were plated on 384-well plates and loaded with a calcium dye loading kit (Molecular Devices, Sunnyvale, Calif.) for 1 hour at room temperature. Cells were then placed on the FLIPR^354 (Molecular Devices, Sunnyvale, Calif.) and excited by an argon laser at 488 nm. The data for the entire 384-well plate was updated every second. An integrated robotic pipettor allowed for simultaneous compound addition into each individual well in the plate.

Data set [5] concerns human Edg-4 receptor. Described as above. It is filed as cell-based. Particulars: Edg-4 relative to other Edg receptors; for Fold-selectivity for Edg-4 (IC50): antagonists; for Fold Selectivity for Edg-4 (EC50): agonists.
Source text: as §1

The target in data set [6] is T5, Edg-5 (Homo sapiens, UniProt O95136).
T5 construct: expressed in transfected cells; host or cells: HTC rat hepatoma cells (from the earlier reading)
Description: Calcium mobilization assay (FLIPR), HTC cells expressing Edg 5. Type of data set: cell-based. To be noted: for pIC50: inhibition; for pEC50: agonist.

The target in data set [7] is T6, Edg-6 (Homo sapiens, UniProt O95977).
T6 construct: expressed in transfected cells; host or cells: HTC rat hepatoma cells (from the earlier reading)
T6 sequence (O95977 1-384): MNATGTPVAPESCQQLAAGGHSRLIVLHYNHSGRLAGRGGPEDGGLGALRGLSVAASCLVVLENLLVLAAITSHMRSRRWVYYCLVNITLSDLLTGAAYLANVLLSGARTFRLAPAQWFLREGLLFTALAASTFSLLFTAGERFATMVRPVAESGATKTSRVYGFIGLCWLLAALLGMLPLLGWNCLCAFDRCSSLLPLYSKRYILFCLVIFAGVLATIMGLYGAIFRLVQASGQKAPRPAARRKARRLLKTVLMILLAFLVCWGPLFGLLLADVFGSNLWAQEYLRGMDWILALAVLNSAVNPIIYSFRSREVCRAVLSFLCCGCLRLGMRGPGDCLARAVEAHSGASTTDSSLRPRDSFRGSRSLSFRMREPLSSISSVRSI
Description: Calcium mobilization assay (FLIPR), HTC cells expressing Edg 6. It is filed as cell-based. To be noted: for pIC50: inhibition; for pEC50: agonist.

The target in data set [8] is T7, Edg-7 (Homo sapiens, UniProt Q9UBY5).
T7 construct: expressed in transfected cells; host or cells: HTC rat hepatoma cells (from the earlier reading)
T7 sequence (Q9UBY5 1-353): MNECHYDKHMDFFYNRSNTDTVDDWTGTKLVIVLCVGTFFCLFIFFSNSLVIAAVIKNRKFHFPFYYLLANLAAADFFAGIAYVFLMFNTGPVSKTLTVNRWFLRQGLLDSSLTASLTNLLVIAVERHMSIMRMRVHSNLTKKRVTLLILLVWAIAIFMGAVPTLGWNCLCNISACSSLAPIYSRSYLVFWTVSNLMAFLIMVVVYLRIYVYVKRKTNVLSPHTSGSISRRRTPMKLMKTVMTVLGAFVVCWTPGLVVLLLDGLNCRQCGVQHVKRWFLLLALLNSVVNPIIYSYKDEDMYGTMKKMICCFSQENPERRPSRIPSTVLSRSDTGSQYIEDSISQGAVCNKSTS
Briefly: Calcium mobilization assay (FLIPR), HTC cells expressing Edg 7. It is filed as cell-based. To be noted: calcium mobilization; for pIC50: inhibition; for pEC50: agonist.

Data set [9] deals with T8, Edg-8 (Homo sapiens, UniProt Q9H228).
T8 construct: expressed in transfected cells; host or cells: HTC rat hepatoma cells (from the earlier reading)
Description: Calcium mobilization assay (FLIPR), HTC cells expressing Edg 8. It is filed as cell-based. Particulars: for pIC50: inhibition; for pEC50: agonist.

Data set [10] has as its system HUVEC cells. Briefly: Migration assay, SIP induced chemotaxis. Type of data set: cell-based, human. To be noted: FIG. 10. The procedure: (§2) Cells were plated in a 24 well format using Fluoroblok filter insert plates ([…]) or Fluoroblok matrigel coated filter insert plates (Becton Dickinson, San Diego, Calif.). The assay was a modified Boyden Chamber assay in which a cell suspension (1 ×10^5 cells/ml) was prepared in serum free medium and added to the top chamber. LPA or SIP (doses ranged from 0.1-10 μM in serum free medium) was added to the bottom chamber. Following a 20-24 hour incubation period, the number of cells migrating or invading into the lower chamber was quantitated by transferring the filter insert into a fresh 24-well plate containing 4 μg/ml calcein AM (Molecular Probes, Sunnyvale, Calif.) in Hank's Balanced Salt Solution and staining for one hour.
(§3) Detection was via fluorescent readout at 450 nm excitation/530 nm emission using a fluorimeter. The level of fluorescence correlated with cell number.

The subject of data set [11] is rat Edg-4 receptor. Description: LPA induced calcium mobilization, HTC cells transfected with pooled rat Edg-4 clones. Type of data set: cell-based. Particulars: pooled HTC population, FIG. 12.
Source text: as §1

Data set [12] addresses T9, mouse Edg-4 receptor (Mus musculus, UniProt Q9JL06).
T9 construct: expressed in transfected cells; host or cells: HTC rat hepatoma cells, pooled population
Description: LPA induced calcium mobilization, HTC cells transfected with pooled mouse Edg-4 clones. Type of data set: cell-based. Particulars: pooled HTC population, FIG. 13.
Source text: as §1

The nature of data set [13]: Calcium mobilization assay, Null. Type of data set: cell-based. To be noted: agonist.
Source text: as §1

The subject of data set [14] is CaOV3 human ovarian cancer cells. Briefly: Migration assay, LPA stimulated chemotaxis. Particulars: CaOV3, FIG. 9. It is filed as cell-based. The procedure: as §2, §3
For most cells types, no further manipulation was required. For CaOV3 human ovarian cancer cells, however, it was necessary that the cells be serum starved overnight prior to preparing the cell suspension. In addition, the filter inserts were coated with a solution of 1 mg/ml rat-tail Collagen I (BD, SanDiego, Calif.).

T2 sequence (Q92633 whole entry): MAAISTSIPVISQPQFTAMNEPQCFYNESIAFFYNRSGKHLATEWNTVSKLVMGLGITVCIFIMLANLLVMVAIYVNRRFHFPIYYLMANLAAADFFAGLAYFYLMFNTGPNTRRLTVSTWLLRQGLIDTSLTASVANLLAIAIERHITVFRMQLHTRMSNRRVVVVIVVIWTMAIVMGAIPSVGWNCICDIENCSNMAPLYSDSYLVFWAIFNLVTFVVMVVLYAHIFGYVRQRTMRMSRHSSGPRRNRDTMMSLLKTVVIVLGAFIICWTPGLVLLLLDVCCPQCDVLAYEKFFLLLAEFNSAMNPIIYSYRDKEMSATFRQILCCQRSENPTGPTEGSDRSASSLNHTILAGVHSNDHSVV
T3 sequence (Q99500 whole entry): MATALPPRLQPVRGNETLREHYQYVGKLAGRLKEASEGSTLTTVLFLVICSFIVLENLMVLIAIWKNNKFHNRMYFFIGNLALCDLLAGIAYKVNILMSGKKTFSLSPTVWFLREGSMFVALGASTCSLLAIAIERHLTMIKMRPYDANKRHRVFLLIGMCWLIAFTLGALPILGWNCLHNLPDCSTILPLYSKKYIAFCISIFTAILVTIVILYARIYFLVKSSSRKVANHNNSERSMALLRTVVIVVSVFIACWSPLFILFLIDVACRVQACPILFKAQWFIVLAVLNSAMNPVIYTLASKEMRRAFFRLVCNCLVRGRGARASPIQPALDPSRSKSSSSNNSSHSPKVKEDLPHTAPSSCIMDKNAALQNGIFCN
T8 sequence (Q9H228 whole entry): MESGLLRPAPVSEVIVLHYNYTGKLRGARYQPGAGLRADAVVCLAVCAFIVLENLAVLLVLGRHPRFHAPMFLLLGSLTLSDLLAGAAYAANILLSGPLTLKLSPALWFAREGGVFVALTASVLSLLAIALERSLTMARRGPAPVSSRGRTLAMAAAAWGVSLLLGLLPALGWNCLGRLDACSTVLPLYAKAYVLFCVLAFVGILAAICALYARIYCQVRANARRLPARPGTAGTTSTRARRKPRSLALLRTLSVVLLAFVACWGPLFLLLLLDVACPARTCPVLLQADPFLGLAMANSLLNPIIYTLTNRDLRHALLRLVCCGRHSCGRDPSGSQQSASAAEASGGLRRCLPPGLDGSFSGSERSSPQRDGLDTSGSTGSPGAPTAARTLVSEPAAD
T1 sequence (P21453 whole entry): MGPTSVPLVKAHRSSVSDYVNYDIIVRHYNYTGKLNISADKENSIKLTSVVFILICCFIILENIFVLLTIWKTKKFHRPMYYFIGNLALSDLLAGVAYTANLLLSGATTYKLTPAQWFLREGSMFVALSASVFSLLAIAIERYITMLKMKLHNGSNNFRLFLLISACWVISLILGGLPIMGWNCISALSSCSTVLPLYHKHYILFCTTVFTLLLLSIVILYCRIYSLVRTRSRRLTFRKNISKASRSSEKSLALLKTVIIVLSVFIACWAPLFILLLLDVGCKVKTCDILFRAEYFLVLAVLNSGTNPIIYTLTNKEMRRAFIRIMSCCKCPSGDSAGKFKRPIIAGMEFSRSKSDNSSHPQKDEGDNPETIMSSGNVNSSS
T9 sequence (Q9JL06 whole entry): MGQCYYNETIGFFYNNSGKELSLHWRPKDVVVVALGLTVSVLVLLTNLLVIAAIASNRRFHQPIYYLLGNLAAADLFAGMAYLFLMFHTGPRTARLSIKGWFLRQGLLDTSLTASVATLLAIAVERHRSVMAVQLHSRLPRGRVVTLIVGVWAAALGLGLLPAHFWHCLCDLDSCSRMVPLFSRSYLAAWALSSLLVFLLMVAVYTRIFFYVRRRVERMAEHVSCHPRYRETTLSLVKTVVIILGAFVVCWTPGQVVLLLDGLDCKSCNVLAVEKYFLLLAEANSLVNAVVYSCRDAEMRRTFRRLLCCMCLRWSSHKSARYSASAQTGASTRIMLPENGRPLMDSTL
T4 sequence (Q9HBW0 1-340 limits assumed): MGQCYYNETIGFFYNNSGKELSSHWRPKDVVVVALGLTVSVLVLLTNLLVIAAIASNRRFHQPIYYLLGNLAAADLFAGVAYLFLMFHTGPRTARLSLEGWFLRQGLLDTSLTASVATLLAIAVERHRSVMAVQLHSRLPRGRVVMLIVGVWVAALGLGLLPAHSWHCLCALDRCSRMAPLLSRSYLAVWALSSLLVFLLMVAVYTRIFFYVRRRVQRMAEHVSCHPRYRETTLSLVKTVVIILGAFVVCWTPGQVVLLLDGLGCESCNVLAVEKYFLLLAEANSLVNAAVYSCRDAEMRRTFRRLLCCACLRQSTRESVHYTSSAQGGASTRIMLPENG
T5 sequence (O95136 whole entry): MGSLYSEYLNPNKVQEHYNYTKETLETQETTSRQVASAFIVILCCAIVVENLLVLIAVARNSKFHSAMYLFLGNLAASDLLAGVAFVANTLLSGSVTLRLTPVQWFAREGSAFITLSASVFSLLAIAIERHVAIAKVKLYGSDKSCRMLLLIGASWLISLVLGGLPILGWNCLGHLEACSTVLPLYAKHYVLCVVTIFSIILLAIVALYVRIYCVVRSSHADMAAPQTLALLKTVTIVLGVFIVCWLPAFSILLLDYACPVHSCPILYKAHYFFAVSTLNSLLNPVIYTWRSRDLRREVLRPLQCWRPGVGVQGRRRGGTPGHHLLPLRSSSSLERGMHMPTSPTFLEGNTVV

A word on the melting point: it is the temperature, or range, at which the solid turns liquid. `O=C1NN=C(c2ccccc2)C(c2c[nH]c3ccccc23)N1` (single isomer, unassigned; (+)) [(+)-121, (+)-5-(1H-Indol-3-yl)-6-phenyl-4,5-dihydro-2H-[1,2,4]triazin-3-one] had a melting point of 281 °C.

Usually pIC50 stands for the IC50 on a negative log10 scale, so that one unit is a factor of ten. In the case of `O=C(CC(=O)C(F)(F)F)Nc1cc(-c2ccc(Cl)c(Cl)c2)n[nH]1` [Compound 103, N-[5-(3,4-dichloro-phenyl)-2H-pyrazol-3-yl]4,4,4-trifluoro-3-oxo-butyramide], the negative logarithm of the IC50 (pIC50) is less than 4.70 in [1]; less than 4.70 in data set [2]; less than 4.70 in [3]; 6.49 in data set [4]; less than 4.70 in data set [6]; less than 4.70 in data set [7]. Moreover, the pIC50 in data set [8] and in data set [9] was less than 4.70 throughout. Moreover, the “Fold-selectivity for Edg-4 (IC50)” value in data set [5] is reported as greater than 62.5. Also, the “inhibition of SIP induced chemotaxis” value in [10] is “did not inhibit”.

Consider `COc1ccc(-c2cc(NC(=O)CC(=O)C(F)(F)F)[nH]n2)cc1` [Compound 105, 4,4-4-trifluoro-N-[5-(4-methoxy-phenyl)-2-pyrazol-3-yl]-3-oxo-butyramide], for which the “potency relative to compound 101” value in [4] was “less potent than compound 101”.

`O=C(CC(=O)C(F)(F)F)Nc1cc(-c2ccc(F)cc2)n[nH]1` [Compound 107]: the “inhibition of LPA-induced calcium mobilization, human Edg-4” value in data set [4] is on record as “dose dependent inhibition”. The “inhibition of LPA-induced calcium mobilization, rat Edg-4” value in data set [11] was “dose dependent inhibition”. The “inhibition of LPA-induced calcium mobilization, mouse Edg-4” value in [12] is recorded as “dose dependent inhibition”.

For `COc1cccc(-c2cc(NC(=O)CC(=O)C(F)(F)F)[nH]n2)c1` [Compound 113, 4,4,4-trifluoro-N-[5-(3-methoxy-phenyl)-2H-pyrazol-3-yl]-3-oxo-butyramide], the “inhibition of LPA-induced calcium mobilization, human Edg-4” value in [4] was “dose dependent inhibition”. The “inhibition of LPA-induced calcium mobilization, rat Edg-4” value in data set [11] is “dose dependent inhibition”. For the same compound, in data set [12], the “inhibition of LPA-induced calcium mobilization, mouse Edg-4” value is “dose dependent inhibition”.

Regarding `O=C1NN=C(c2ccccc2)C(c2c[nH]c3ccccc23)N1` (centres unmarked) [Compound 121, 5-(1H-Indol-3-yl)-6-phenyl-4,5-dihydro-2H-[1,2,4]triazin-3-one], the pIC50 in [1] is less than 4.70; in [2], less than 4.70; in data set [3], less than 4.70; in [4], 5.44; in data set [6], less than 4.70; in data set [7] it was less than 4.70. Moreover, the pIC50 in data set [8] and in [9] was less than 4.70 in each case. Moreover, the “Fold-selectivity for Edg-4 (IC50)” value in data set [5] is given as greater than 5.6.

The pEC50 is the EC50 on a negative log10 scale, so that one unit is a factor of ten. For the compound `FC(F)(F)c1ccc2nnc(-c3cccc(Cl)c3Cl)n2c1` [Compound 129, 3-(2,3-dichlorophenyl)-6-trifluoromethyl[1,2,4]triazolo[4,3-a]pyridine], the negative-log EC50 (pEC50) in [1] was less than 4.60; in data set [2], less than 4.60; in data set [3], less than 4.60; in [4], 5.27; in data set [6], less than 4.60; in [7], less than 4.60. The pEC50 in data set [8], in [9] and in data set [13] was less than 4.60 in each case. Also, the “Fold Selectivity for Edg-4 (EC50)” value in data set [5] is listed as greater than 4.6.

Consider `FC(F)(F)c1ccc2nnc(-c3c(Cl)cccc3Cl)n2c1` [Compound 131, 3-(2,6-dichlorophenyl)-6-trifluoromethyl-[1,2,4]triazolo [4,3-a]pyridine], for which the pEC50 in data set [1] was less than 4.60; in [2], less than 4.60; in [3] it was less than 4.60; in data set [4], 5.00; in data set [6], less than 4.60; in [7], less than 4.60. The pEC50 in [8], in [9] and in data set [13] was less than 4.60 each time. In data set [5], the “Fold Selectivity for Edg-4 (EC50)” value is listed as greater than 2.5.

Regarding “N-[5-(3,4-dichloro-phenyl)-2H-pyrazol-3-yl]4,4,4-trifluoro-3-oxo-butyramide [Compound 103]”, in data set [4] (HTC cells transfected with human Edg-4, FIG. 15), the “inhibition of calcium response elicited by agonist 125” value is reported as “inhibited”. For the same compound, in [4], the “inhibition of LPA-induced calcium mobilization, human Edg-4” value is given as “dose dependent inhibition” and the “potency relative to compound 101” value is 2-3 fold. Besides, in data set [11], the “inhibition of LPA-induced calcium mobilization, rat Edg-4” value was “dose dependent inhibition”. In addition, in data set [12], the “inhibition of LPA-induced calcium mobilization, mouse Edg-4” value is recorded as “dose dependent inhibition”. The “inhibition of LPA stimulated chemotaxis” value in data set [14] is “effectively blocked; also recorded: did inhibit”.
